According to patent US11118227B2, “Methods of identifying agents having neuroprotective or anti-oxidant activity for regulating mitochondrial function” (THE ROYAL VETERINARY COLLEGE, priority 2015, dated 2021):
Entries after “also recorded” stand apart in the source; their conditions may differ.

Key:
[1] = system: TSPO; assay: Immunofluorescence and immunoblot of TSPO in SHY-5Y cells treated with PD toxins; type: cell-based
Text: a. Representative immunofluorescence of TSPO in SHY-5Y Cells. Panels b and c: Immunoblot analysis of TSPO expression pattern and ATPB5 in SHY-5Y Cells treated with MPP^+ and 6-OHD.

[2] = system: HeLa cells; assay: Western blot of mitochondrial proteins (mitophagy) in HeLa cells; type: cell-based; conditions: HeLa cells (PARK2 null), after 7 h and 24 h
Text: (§1) B-actin is shown as a loading control. […].

[3] = system: TSPO; assay: TSPO expression in PARK2 null cells (HeLa); type: cell-based
[4] = system: PARK2; assay: Immunocytochemistry of FCCP-induced PARK2 translocation in MEF cells; type: cell-based, mouse; conditions: 24 hr treatment then FCCP (20 μM) 4 hr, vs vehicle control, FIG. 4E
Protocol: (E) Representative images of PARK2 localization in MEF cells treated with DMSO vehicle control or 1 μM sulforaphane and/or 10 μM PMI for 24 hr, before and after treatment with FCCP (20 μM) for 4 hr. Scale bar represents 10 μm. A magnification of the merge images is shown in areas demarcated by the white box.

[5] = system: TSPO; assay: Immunoblotting of TSPO levels in MEF cells; type: cell-based, mouse; conditions: 24 h, 1 μM sulforaphane or 10 μM PMI, vs control
Protocol: (§2) (A) Western blot to compare β-subunit, MTCO-1 and TSPO levels in MEFs treated with either DMSO vehicle control, or sulforaphane (1 μM), or PMI (10 μM) either with or without co-administration of UO126 (10 μM) for 24 h. B-actin is shown as a loading control.
(B) Graph show MTCO-1:β-actin (B), β-subunit:β-actin (C), TSPO:β-actin ratio band density analysis, n=3.
(§3) TSPO has been recently described as a modulator of mitophagy (Gatliff et al., 2014). We were therefore interested to examine if PMI and sulforaphane alter its accumulation on Mitochondria as well as its transcription levels FIG. 6E.

[6] = system: PARK2; assay: Live imaging of YFP-PARK2 translocation in HeLa cells co-transfected with mt-RFP and YFP-PARK2; type: cell-based; conditions: for time of FCCP treatment to almost complete co-localisation of PARK2 in mitochondria: YFP-PARK2; for time of FCCP treatment at which PARK2 translocation was initiated: YFP-PARK2, pre- or co-treated
[7] = molecular target: T1, human Keap1 Kelch protein (Homo sapiens, UniProt Q14145); assay: Biochemical experiments on the Keap1-Nrf2 protein-protein interaction with human Keap1 Kelch protein
T1 construct: human Keap1 Kelch protein
T1 sequence (Q14145 321-609 limits assumed): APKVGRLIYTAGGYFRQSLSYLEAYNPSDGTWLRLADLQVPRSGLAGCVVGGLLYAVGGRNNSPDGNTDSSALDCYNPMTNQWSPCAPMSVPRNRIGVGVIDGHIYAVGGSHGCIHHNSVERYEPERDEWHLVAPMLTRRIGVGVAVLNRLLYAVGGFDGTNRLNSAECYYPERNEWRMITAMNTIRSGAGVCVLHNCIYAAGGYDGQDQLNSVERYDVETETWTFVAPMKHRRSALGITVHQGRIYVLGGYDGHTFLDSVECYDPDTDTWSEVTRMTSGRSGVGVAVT
Protocol: To confirm the mode of action of PMI, a series of biochemical experiments were conducted with human Keap1 Kelch protein.

[8] = system: P62; conditions: East et al 2014, cited from earlier work
[9] = system: PARK2; assay: Western blot of PARK2 in mitochondrial fractions of MEF cells (basal conditions); type: cell-based, mouse; conditions: 24 h; for levels of PARK2 in mitochondrial fractions: basal, vs vehicle control, FIG. 4A-B
Text: We therefore examined the ability of PARK2 to translocate to mitochondria either under basal conditions or after Carbonyl cyanide-4-(trifluoromethoxy)phenylhydrazone (FCCP an ionophore) treatment.

[10] = system: MEF cells; assay: Western blot of mitochondrial protein levels (MTCO-1, β-subunit) in MEF cells; type: cell-based, mouse; conditions: 24 h; for mitochondrial network / key mitochondrial protein levels by western blot: vs untreated cells; for PMI (Nrf2)-induced reduction of mitochondrial protein levels, on co-administration of sulforaphane: 10 μM PMI & 1 μM sulforaphane
Protocol: [β-actin is shown as a loading control.
B-actin is shown as a loading control.
as §1, §2

[11] = system: MEF cells; assay: Confocal imaging of colocalisation of mitochondria and LC-3 in MEF cells; type: cell-based, mouse; conditions: 24 hr; for mitochondrial LC3 colocalisation (mitophagy): 1 μM sulforaphane or 10 μM PMI, FIG. 2D
Protocol: (D) Representative images of LC3 localization in MEF cells treated with DMSO vehicle control, or 1 μM sulforaphane and/or 10 μM PMI for 24 hr. Scale bar represents 10 μm. A magnification of the merge images is shown in areas demarcated by the white box.
To investigate the effects of sulforaphane in mitophagy, we examined the colocalisation of mitochondria and LC-3 in MEF cells using high-resolution confocal imaging (FIG. 2D).

[12] = system: TSPO mRNA; assay: RT-PCR of TSPO mRNA levels in MEF cells; type: cell-based, mouse; conditions: 24 h, PMI (10 μM) or sulforaphane (1 μM), vs control
Protocol: (D) RT-PCR analysis for estimation of TSPO mRNA levels in MEFs following treatment with DMSO, PMI (10 μM) and/or sulforaphane (1 μM). Values are presented as arbitrary units normalized to 18s RNA levels for each sample, n≥3.
as §3

[13] = system: MEF cells; assay: Western blot of mitochondrial protein ubiquitination in mitochondrial fractions of MEF cells; type: cell-based, mouse; conditions: 24 h, FIG. 3B
Text: (B) Western blot of mitochondrial fractions, highlighting mitochondrial ubiquitination in control or sulforaphane and/or PMI-treated MEF cells. B-subunit is shown as a loading control; n=2.
(§4) The levels and localisation of p62 in MEF cells were then examined by immunoblotting (FIG. 3A).

[14] = system: MEF cells; conditions: 24 h, 1 μM sulforaphane or 10 μM PMI, previously reported work (East et al., 2014), FIG. 1C; cited from earlier work
[15] = system: p62; conditions: MEF cells, 24 h, 1 μM sulforaphane
Protocol: (A) Representative images of P62 localization in MEF cells treated with DMSO vehicle control, or 1 μM sulforaphane and/or 10 μM PMI for 24 hr. Scale bar represents 10 μm. A magnification of the merge images is shown in areas demarcated by the white box. […].
as §4

Row | Structure (SMILES) | TSPO expression [1] | induction of mitophagy (mitochondrial protein levels) [2] | expression of TSPO [3] | FCCP-induced PARK2 translocation [4] | levels of TSPO by immunoblotting [5] | time of FCCP treatment to almost complete co-localisation of PARK2 in mitochondria [6] | time of FCCP treatment at which PARK2 translocation was initiated [6] | levels of PARK2 in mitochondrial fractions [9] | mitochondrial network / key mitochondrial protein levels by western blot [10] | mitochondrial LC3 colocalisation (mitophagy) [11] | levels of TSPO mRNA (RT-PCR) [12] | also measured
1 | NCCc1cc(O)c(O)cc1O [6-HOD] | upregulate TSPO |  |  |  |  |  |  |  |  |  |  | 
2 | O=[N+]([O-])c1cccc(-c2cn(-c3cccc(I)c3)nn2)c1 [PMI] |  | induction of mitophagy was observed | but not in the cells in which PARK2 is not expressioned such as HeLa cells | no statistically significant differences | reduction in the levels of TSPO; also recorded: decreases TSPO levels in MEFs | approximately 60 mins | 30 min | no statistically significant differences | reduced mitochondrial network | significantly increased compared to untreated cells | reduced compared to control | degradation of the Keap1 Kelch protein [7]: without causing a degradation of the Keap1 Kelch protein; disruption of the protein-protein interaction between Keap1 and Nrf2 [7]: able to disrupt the protein-protein interaction between Keap1 and Nrf2 in a dose-dependent manner; P62 expression [8]: upregulates P62 via stabilization of Nrf2; mitophagy [8]: promotes mitophagy; toxic effects on cells ([8]; at the concentrations used in the assays): does not mediate any apparent toxic effects on cells; sulforaphane-reduced PARK2 activity, on addition of PMI ([9]; sulforaphane plus PMI): did not alter the reduced activity of PARK2; ubiquitination in mitochondrial fractions ([13]; vs vehicle control): increased ubiquitination
3 | C[S+]([O-])CCCCN=C=S (stereo not shown) [sulforaphane] |  | induction of mitophagy was observed | does not affect the expression of TSPO | no statistically significant differences | no significant differences were observed | approximately 60 mins | 30 min | reduced compared to the vehicle control | no significant differences | no induction of mitophagy was observed | statistically significant increase | mitochondrial proteins (MTCO-1) by Western blot [14]: an increase in mitochondrial proteins; levels of TSPO by immunoblotting ([5]; listed as Sulforaphane): does not affect the expression of TSPO; PMI (Nrf2)-induced reduction of mitochondrial protein levels, on co-administration of sulforaphane [10]: significant normalization of the mitochondrial protein levels; PMI (Nrf2)-induced reduction of mitochondrial protein levels, on co-administration of sulforaphane ([10]; listed as Sulforaphane): inhibits the Nrf2-induced reduction of mitochondrial protein levels; mitochondrial LC3 colocalisation attributed to PMI, on addition of sulforaphane ([11]; 10 μM PMI plus 1 μM sulforaphane): abolished; levels of p62 in the cytosol [15]: increased levels of p62 in the cytosol compared to control; translocation of p62 to mitochondria [15]: impaired and significantly reduced compared to basal conditions; PMI-induced mitochondrial ubiquitination, on co-administration of sulforaphane ([13]; PMI plus sulforaphane): abolished the effect attributed to PMI
4 | C[n+]1ccc(-c2ccccc2)cc1 [MPP^+] | upregulate TSPO |  |  |  |  |  |  |  |  |  |  | 
